Test results as given in ChEMBL document CHEMBL4184307, “Identification of caffeoylquinic acid derivatives as natural protein tyrosine phosphatase 1B inhibitors from Artemisia princeps” (Bioorg Med Chem Lett, 2018).

Experiments:
[1] = target: T1, Tyrosine-protein phosphatase non-receptor type 1 (Homo sapiens) (UniProt P18031); experiment: (§1) Inhibition of PTP1B (unknown origin)
T1 sequence (whole entry): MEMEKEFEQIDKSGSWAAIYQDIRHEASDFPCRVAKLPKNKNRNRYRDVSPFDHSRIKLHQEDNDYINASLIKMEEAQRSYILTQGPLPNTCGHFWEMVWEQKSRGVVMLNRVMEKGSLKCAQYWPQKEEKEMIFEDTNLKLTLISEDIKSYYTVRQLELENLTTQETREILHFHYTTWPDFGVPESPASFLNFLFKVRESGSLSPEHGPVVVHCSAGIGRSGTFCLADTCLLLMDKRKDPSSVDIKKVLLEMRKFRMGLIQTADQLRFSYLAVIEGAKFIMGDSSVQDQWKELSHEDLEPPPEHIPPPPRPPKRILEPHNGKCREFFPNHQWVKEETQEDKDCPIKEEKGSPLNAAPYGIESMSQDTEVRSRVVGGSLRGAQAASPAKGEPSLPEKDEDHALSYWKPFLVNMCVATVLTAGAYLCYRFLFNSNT

[2] = target: T2, Tyrosine-protein phosphatase non-receptor type 1 (Homo sapiens, UniProt P18031); experiment: as §1
T2 sequence (P18031 whole entry): T1 sequence (whole entry)

[3] = target: T1, Tyrosine-protein phosphatase non-receptor type 1 (Homo sapiens); experiment: Inhibition of PTP1B (unknown origin) at 100 uM relative to control
[4] = target: T3, Tyrosine-protein phosphatase non-receptor type 2 (Homo sapiens) (UniProt P17706); experiment: Inhibition of TCPTP (unknown origin) at 100 uM relative to control
T3 sequence (whole entry): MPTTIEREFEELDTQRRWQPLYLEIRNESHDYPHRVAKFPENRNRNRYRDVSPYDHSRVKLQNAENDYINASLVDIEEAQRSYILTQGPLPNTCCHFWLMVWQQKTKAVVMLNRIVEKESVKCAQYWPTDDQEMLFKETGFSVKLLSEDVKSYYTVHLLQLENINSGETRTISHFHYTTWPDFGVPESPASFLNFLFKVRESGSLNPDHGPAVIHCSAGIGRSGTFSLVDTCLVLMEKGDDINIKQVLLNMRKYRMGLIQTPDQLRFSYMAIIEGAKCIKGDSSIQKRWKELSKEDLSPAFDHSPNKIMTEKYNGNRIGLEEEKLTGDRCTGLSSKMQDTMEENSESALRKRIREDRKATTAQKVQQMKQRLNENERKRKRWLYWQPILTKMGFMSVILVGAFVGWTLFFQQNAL

[5] = target: Dual specificity protein phosphatase 3 (Homo sapiens) (UniProt P51452); experiment: Inhibition of VHR (unknown origin) at 100 uM relative to control
Dual specificity protein phosphatase 3 (Homo sapiens), sequence (P51452 whole entry, looked up): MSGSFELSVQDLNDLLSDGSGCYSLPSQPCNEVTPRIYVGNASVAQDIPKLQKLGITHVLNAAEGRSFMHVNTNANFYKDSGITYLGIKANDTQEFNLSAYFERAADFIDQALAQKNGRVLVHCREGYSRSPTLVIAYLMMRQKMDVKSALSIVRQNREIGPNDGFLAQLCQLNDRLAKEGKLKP

[6] = target: Tyrosine-protein phosphatase non-receptor type 6 (Homo sapiens) (UniProt P29350); experiment: Inhibition of SHP1 (unknown origin) at 100 uM relative to control
Tyrosine-protein phosphatase non-receptor type 6 (Homo sapiens), sequence (P29350 whole entry): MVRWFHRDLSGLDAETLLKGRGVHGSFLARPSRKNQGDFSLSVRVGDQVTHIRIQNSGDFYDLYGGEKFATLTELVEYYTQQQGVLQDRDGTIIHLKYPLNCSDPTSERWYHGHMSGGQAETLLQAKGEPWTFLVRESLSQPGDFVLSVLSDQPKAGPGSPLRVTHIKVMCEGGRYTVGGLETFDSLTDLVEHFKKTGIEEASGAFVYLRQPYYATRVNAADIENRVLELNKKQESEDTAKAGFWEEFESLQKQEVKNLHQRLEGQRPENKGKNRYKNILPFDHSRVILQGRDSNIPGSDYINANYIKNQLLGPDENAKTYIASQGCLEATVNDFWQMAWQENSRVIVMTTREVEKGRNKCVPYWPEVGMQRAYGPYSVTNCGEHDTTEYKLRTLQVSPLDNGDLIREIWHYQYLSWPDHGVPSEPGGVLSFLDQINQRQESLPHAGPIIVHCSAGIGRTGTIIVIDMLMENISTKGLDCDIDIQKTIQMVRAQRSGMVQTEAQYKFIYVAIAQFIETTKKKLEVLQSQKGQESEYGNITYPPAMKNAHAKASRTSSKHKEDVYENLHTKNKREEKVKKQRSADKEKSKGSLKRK

[7] = target: T4, Tyrosine-protein phosphatase non-receptor type 11 (Homo sapiens) (UniProt Q06124); experiment: Inhibition of SHP2 (unknown origin) at 100 uM relative to control
T4 sequence (whole entry): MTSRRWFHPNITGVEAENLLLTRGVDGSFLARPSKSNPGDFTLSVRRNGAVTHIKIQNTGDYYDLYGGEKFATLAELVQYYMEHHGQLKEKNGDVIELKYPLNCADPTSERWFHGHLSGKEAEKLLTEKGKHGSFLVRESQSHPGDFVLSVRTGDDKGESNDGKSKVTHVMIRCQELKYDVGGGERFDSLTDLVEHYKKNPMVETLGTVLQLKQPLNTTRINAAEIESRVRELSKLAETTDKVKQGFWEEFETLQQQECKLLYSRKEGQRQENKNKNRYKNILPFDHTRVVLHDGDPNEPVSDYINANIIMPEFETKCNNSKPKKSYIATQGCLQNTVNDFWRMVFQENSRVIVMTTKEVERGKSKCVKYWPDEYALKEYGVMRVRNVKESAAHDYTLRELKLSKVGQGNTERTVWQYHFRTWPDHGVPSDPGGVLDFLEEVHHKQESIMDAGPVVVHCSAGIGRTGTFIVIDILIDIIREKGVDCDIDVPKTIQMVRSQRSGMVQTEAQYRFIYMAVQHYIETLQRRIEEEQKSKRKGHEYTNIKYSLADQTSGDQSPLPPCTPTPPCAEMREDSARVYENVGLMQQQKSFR

[8] = target: T5, Tyrosine-protein phosphatase non-receptor type 2 (Homo sapiens, UniProt P17706); experiment: Inhibition of TCPTP (unknown origin)
T5 sequence (P17706 whole entry): T3 sequence (whole entry)

SMILES | inhibition [1] | IC50 [2] | further results
COc1cc(/C=C/C(=O)O[C@H]2[C@H](O)C[C@](O)(C(=O)O)C[C@H]2OC(=O)/C=C/c2ccc(O)c(OC)c2)ccc1O | Dose-dependent effect | 67.1 µM | –
COC(=O)[C@]1(O)C[C@@H](O)[C@@H](OC(=O)/C=C/c2ccc(O)c(O)c2)[C@H](OC(=O)/C=C/c2ccc(O)c(O)c2)C1 | Dose-dependent effect | 56 µM | –
O=C(/C=C/c1ccc(O)c(O)c1)O[C@@H]1C[C@](O)(C(=O)O)C[C@@H](O)[C@H]1O [CHLOROGENIC ACID] | Dose-dependent effect | – | inhibition [3]: 83.1%; inhibition [4]: 65.6%; inhibition [5]: 30.5%; inhibition [6]: 32%; inhibition [7]: 28.4%; IC50 [8]: 77.9 µM
O=C(/C=C/c1ccc(O)c(O)c1)O[C@H]1[C@H](O)C[C@](O)(C(=O)O)C[C@H]1OC(=O)/C=C/c1ccc(O)c(O)c1 | Dose-dependent effect | 59.4 µM | –
O=C(/C=C/c1ccc(O)c(O)c1)O[C@@H]1C[C@@](O)(C(=O)O)C[C@@H](O)[C@@H]1O | Dose-dependent effect | – | –

Further compounds by falling IC50 [2], results first:

inhibition [1] | IC50 [2] | SMILES | further results
Dose-dependent effect | 43.9 µM | O=C(/C=C/c1ccc(O)c(O)c1)O[C@H]1[C@H](O)C[C@](O)(C(=O)O)C[C@H]1O | –
Dose-dependent effect | 42.7 µM | COC(=O)[C@]1(O)C[C@@H](OC(=O)/C=C/c2ccc(O)c(O)c2)[C@@H](O)[C@H](OC(=O)/C=C/c2ccc(O)c(O)c2)C1 | –
Dose-dependent effect | 41.5 µM | O=C(/C=C/c1ccc(O)c(O)c1)O[C@@H]1[C@H](O)C[C@@](O)(C(=O)O)C[C@H]1OC(=O)/C=C/c1ccc(O)c(O)c1 | –
Dose-dependent effect | 37.9 µM | O=C(/C=C/c1ccc(O)c(O)c1)O[C@@H]1C[C@](O)(C(=O)O)C[C@@H](OC(=O)/C=C/c2ccc(O)c(O)c2)[C@H]1O | –
Dose-dependent effect | 35.4 µM | O=C(/C=C/c1ccc(O)c(O)c1)O[C@@H]1C[C@](OC(=O)/C=C/c2ccc(O)c(O)c2)(C(=O)O)C[C@@H](O)[C@H]1O [1,5-O-TRANS-DICAFFEOYLQUINIC ACID] | –
